Measured values taken from US8575103B2, “Peptides and methods for inhibiting G alpha protein signaling” (The Board of Trustees of the University of Illinois, priority 2009, dated 2013).
“Also recorded” adds a separate entry of the source. Like-named read-outs stand apart in the source and are kept apart here. Where no end group is shown, it is not given here. The star is where a group is joined. Myristoyl = CCCCCCCCCCCCCC(=O)*

Assays:
[1] = target: T1, kindlin-3 (Homo sapiens, UniProt Q86UX7); assay: peptide affinity column with solubilized human platelets, western blot for kindlin-3; format: binding; conditions: immunoblot, kindlin 3 (72 kD)
T1 construct: also purified whole talin (220 kD), the talin head domain (47 kD) and kindlin 3 (72 kD); endogenous in cells; host or cells: solubilized human platelets
Excerpt: (§1) On this basis, subsequent experiments examined whether G13SR2pep peptide (SEQ ID NO:5) does indeed directly interact with α11bβ3 and/or one of its associated proteins in human platelets. In this respect, platelet α11bβ3 integrin is known to exist in a complex with two cytoplasmic proteins, i.e., talin and kindlin-3 (Tadokoro, et al. (2003) Science 302:103-6; Moser, et al. (2008) Nature Med. 14:325-30). To determine whether G13SR2pep, (SEQ ID NO:5) interacts with any of these proteins (or with the entire α11bβ3, talin, kindlin-3 complex), peptide affinity columns using G13SR2pep (SEQ ID NO:5) were employed. The affinity purified protein(s) from solubilized human platelets that specifically bound to the G13SR2pep peptide were eluted, and analyzed by western blot for α11bβ3 integrin, talin and kindlin-3. In similar experiments, the eluates from a peptide column using the G13SR2-Random Peptide (SEQ ID NO:9) were also analyzed. Immunoblot analysis with the α11bβ3 antibodies (Abcam) detected two bands, one at 130 kD and the other at 115 kD in solubilized human platelets as well as in the elution fraction obtained from the G13SR2pep (SEQ ID NO:5) affinity column. […] This was supported by similar experiments using talin antibodies and the kindlin 3 antibody (Abcam).

[2] = target: T2, talin (Homo sapiens, UniProt Q9Y490); assay: peptide affinity column with solubilized human platelets, western blot for talin; format: binding; conditions: solubilized human platelets, immunoblot; whole talin (220 kD), talin head domain (47 kD)
T2 construct: also purified whole talin (220 kD), the talin head domain (47 kD) and kindlin 3 (72 kD); endogenous in cells; host or cells: solubilized human platelets
T2 sequence (Q9Y490 1-433): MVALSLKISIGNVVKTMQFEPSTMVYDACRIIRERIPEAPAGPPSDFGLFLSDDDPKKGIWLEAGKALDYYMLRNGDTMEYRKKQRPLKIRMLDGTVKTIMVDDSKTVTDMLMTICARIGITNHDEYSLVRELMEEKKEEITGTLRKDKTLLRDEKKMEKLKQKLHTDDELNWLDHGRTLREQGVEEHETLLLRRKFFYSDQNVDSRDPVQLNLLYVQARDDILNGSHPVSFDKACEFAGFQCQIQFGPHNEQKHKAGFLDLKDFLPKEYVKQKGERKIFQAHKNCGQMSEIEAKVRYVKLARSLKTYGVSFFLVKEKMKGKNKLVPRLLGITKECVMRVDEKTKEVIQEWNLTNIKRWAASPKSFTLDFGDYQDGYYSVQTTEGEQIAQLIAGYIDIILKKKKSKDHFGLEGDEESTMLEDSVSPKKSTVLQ
Excerpt: as §1
Thus, the binding of G13SR2pep (SEQ ID NO:5) to the talin head domain serves as the basis for the ability of G13SR2pep to inhibit α11bβ3 integrin activation and platelet aggregation. As such, peptides or specific compounds fashioned to mimic or modify the switch region interaction with talin, α11bβ3 integrin or other α11bβ3 integrin-associated proteins would have profound effects on thrombosis and other integrin-linked disease processes.

[3] = target: T3, α11bβ3 integrin (Homo sapiens, UniProt P05106+P08514+Q9Y490); assay: peptide affinity column with solubilized human platelets, western blot for α11bβ3; format: binding; conditions: immunoblot, bands at 130 kD and 115 kD
T3 construct: detected two bands, one at 130 kD and the other at 115 kD in solubilized human platelets; endogenous in cells; host or cells: solubilized human platelets
Excerpt: as §1

[4] = tested on: human platelets; assay: human platelet aggregation in platelet rich plasma (PRP); format: cell-based
[5] = tested on: CD1 mice; assay: bleeding time in mice after intravenous administration; format: in vivo; conditions: 100 μl of 3.7 mM intravenously via tail vein, tail cut five minutes after administration
Experimental: Briefly, CD1 mice (25 grams) were anesthetized with sodium pentobarbital, and either 100 μl of vehicle or 100 μl of a vehicle solution containing 3.7 mM of each peptide or aspirin was administered intravenously via the tail vein. Five minutes following administration, the tail was cut 0.5 cm from the tip and immersed in PBS buffer (pH 7.4; 37EC). Cessation of bleeding was observed visually and the total bleeding time was recorded.

[6] = tested on: human platelets; assay: human platelet aggregation in platelet rich plasma (PRP); format: cell-based; conditions: for effect on human platelet aggregation induced by U46619 (TP): 0.5 μM U46619
Experimental: Trace (a) is control data from human platelet rich plasma (PRP) incubated with 500 μM of the Random Peptide (Myr-Leu-Ile-Arg-Pro-Tyr-Leu-His-Arg-Ala-Thr-Lys-Glu-Gly; SEQ ID NO:6), prior to stimulation with 15 μM of the PAR1 receptor agonist TRAP1. Trace (b) depicts data wherein PRP was treated with 30 μM Myr-G13SR1pep-2 prior to stimulation with 15 μM TRAP1. Trace (c) depicts data wherein PRP was treated with 50 μM Myr-G13SR1pep-2 prior to stimulation with 15 μM TRAP1. Trace (d) is control data showing PRP treated with 500 μM of the Random Peptide (SEQ ID NO:6) prior to stimulation with the 0.5 μM thromboxane receptor agonist U46619. Trace (e) depicts data wherein PRP was treated with 500 μM Myr-G13SR1pep-2 prior to stimulation with 0.5 μM U46619. Trace (f) is control data showing PRP treated with 500 μM of the Random Peptide (SEQ ID NO:6) prior to stimulation with 10 μM of the P2Y1/P2Y12 receptor agonist ADP. […] Trace (h) depicts control data showing PRP treated with 500 μM of the Random Peptide (SEQ ID NO:6) prior to stimulation with 40 μM of the PAR4 receptor agonist TRAP4. Trace (i) depicts data wherein PRP was treated with 500 μM Myr-G13SR1pep-2 prior to stimulation with 40 μM TRAP4.
Trace (a) depicts control data showing PRP treated with 500 μM of the Random Peptide (Myr-Gln-Arg-Ile-Arg-Phe-Cys-Ser-Glu-Gly-Val-Glu-Lys-Gly-His-Trp-Asn-Arg; SEQ ID NO:7) prior to stimulation with 15 μM of the PAR1 receptor agonist TRAP1. Trace (b) depicts data wherein PRP was treated with 500 μM Myr-GqSR2pep prior to stimulation with 15 μM TRAP1. Trace (c) is control data showing PRP treated with 500 μM Random Peptide (SEQ ID NO:7) prior to stimulation with the 0.5 μM of the thromboxane receptor agonist U46619. Trace (d) depicts data wherein PRP was treated with 50 μM Myr-GqSR2pep, prior to stimulation with 0.5 μM U46619. Trace (e) depicts data wherein PRP was treated with 150 μM Myr-GqSR2pep prior to stimulation with 0.5 μM U46619. Trace (f) is control data showing PRP treated with 500 μM Random Peptide (SEQ ID NO:7) prior to stimulation with 10 μM ADP. Trace (g) depicts data wherein PRP was treated with 50 μM Myr-GqSR2pep prior to stimulation with 10 μM ADP. Trace (h) depicts data wherein PRP was treated with 150 μM Myr-GqSR2pep prior to stimulation with 10 μM ADP. Trace (i) is control data showing PRP treated with 500 μM Random Peptide (SEQ ID NO:7) prior to stimulation with 40 μM of the PAR4 receptor agonist TRAP4. Trace (j) depicts data wherein PRP was treated with 150 μM Myr-GqSR2pep prior to stimulation with 40 μM of TRAP4.
Trace (a) is control data showing PRP treated with 500 μM of the Random Peptide (Myr-Gly-Ile-His-Glu-Trp-Glu-Val-Gly-Ser-Phe-Lys-Gly-Cys-Gln-Lys-Arg-Arg; SEQ ID NO:8) prior to stimulation with 15 μM of the PAR1 receptor agonist TRAP1. Trace (b) depicts data wherein PRP was treated with 500 μM Myr-GiSR2pep prior to stimulation with 15 μM TRAP1. Trace (c) is control data showing PRP treated with 500 μM Random Peptide (SEQ ID NO:8) prior to stimulation with the 0.5 μM of the thromboxane receptor agonist U46619. Trace (d) depicts data wherein PRP was treated with 500 μM Myr-GiSR2pep prior to stimulation with 0.5 μM U46619. Trace (e) is control data showing PRP treated with 500 μM Random Peptide (SEQ ID NO:8) prior to stimulation with 10 μM ADP. Trace (f) depicts data wherein PRP was treated with 150 μM Myr-GiSR2pep, prior to stimulation with 10 μM ADP. Trace (g) depicts data wherein PRP was treated with 500 μM Myr-GiSR2pep prior to stimulation with 10 μM ADP. Trace (h) is control data showing PRP treated with 500 μM Random Peptide prior (SEQ ID NO:8) to stimulation with 40 μM of the PAR4 receptor agonist TRAP4. Trace (i) depicts data wherein PRP was treated with 500 μM Myr-GiSR2pep prior to stimulation with 40 μM of TRAP4 […]

[7] = tested on: human platelets; conditions: Huang, et al. (2007) J. Biol. Chem. 282:10210-10222; cited from earlier work
[8] = tested on: α11bβ3 integrin; assay: platelet α11bβ3 integrin activation, FITC-PAC1 antibody binding by flow cytometry; format: cell-based, human; conditions: single substitution Arg232 to Ala versus parent G13SR2pep
Experimental: The platelet count in human PRP was adjusted to 1×10^6 platelets/ml. The platelets were then labeled with FITC-conjugated PAC1 antibody against activated α11bβ3 integrin, and the samples were analyzed by flow cytometry in a Beckman Coulter CyAn II Flow Cytometer. Trace (a) depicts resting platelets labeled with FITC-PAC-1 antibody. Trace (b) depicts platelets stimulated with 0.5 μM U46619 and labeled with FITC-PAC1 antibody. Trace (c) depicts platelets incubated with 500 μM of the Random Peptide (SEQ ID NO:9), followed by 0.5 μM U46619 stimulation and FITC-PAC1 labeling. Trace (d) depicts platelets incubated with 150 μM of the G13SR2pep, followed by 0.5 μM U46619 stimulation and FITC-PAC1 labeling.
Subsequent experiments examined the effect of G13SR2pep, (SEQ ID NO:5) on human platelet α11bβ3 integrin activation as measured by FITC-PAC-1 antibody binding.

[9] = PRP, 500 μM peptide, 15 μM TRAP1
[10] = PRP, 500 μM peptide, 40 μM TRAP4

Compound: GFDEWEVSFKGCQRRSR [Random Peptide (SEQ ID NO:9), random peptide control for G13SR2pep, reference compound]
- kindlin 3 in affinity column eluate [1]: did not reveal the presence
- talin in affinity column eluate [2]: did not reveal the presence
- α11bβ3 in affinity column eluate (interaction with peptide) [3]: did not reveal the presence
- inhibition of human platelet aggregation stimulated by U46619 ([4]; PRP, 75-150 μM G13SR2pep (Random Peptide 500 μM), 0.5 μM U46619): without effect
- inhibition of human platelet aggregation stimulated by ADP ([4]; PRP, 75-150 μM G13SR2pep (Random Peptide 500 μM), 10 μM ADP): without effect
- inhibition of human platelet aggregation stimulated by TRAP1 ([4]; PRP, 75-150 μM G13SR2pep (Random Peptide 500 μM), 15 μM TRAP1): without effect
- inhibition of human platelet aggregation stimulated by TRAP4 ([4]; PRP, 75-150 μM G13SR2pep (Random Peptide 500 μM), 50 μM TRAP4): without effect

Compound: CC(=O)Oc1ccccc1C(=O)O [ASA, aspirin, reference compound]
- bleeding time [5]: increase

Compound: Myr-Val-Gly-Gly-Gln-Arg-Ser-Glu-Arg-Arg-Lys-Trp-Ile-His-Cys-Phe-Glu-Asn (Myristoyl-VGGQRSERRKWIHCFEN) [Myr-GqSR2pep, myristoylated Gαq switch region 2 peptide]
- effect on human platelet aggregation induced by TRAP1 (PAR1) [6, 9]: ineffective
- inhibition of human platelet aggregation induced by PAR4 receptors ([6]; PRP, 50-150 μM peptide, 40 μM TRAP4): dose-dependent inhibition
- inhibition of human platelet aggregation induced by TP receptors ([4]; PRP, 50-150 μM peptide, 0.5 μM U46619): dose-dependent inhibition
- inhibition of human platelet aggregation induced by ADP receptors ([4]; PRP, 50-150 μM peptide, 10 μM ADP): dose-dependent inhibition

Compound: Myr-Leu-Leu-Ala-Arg-Arg-Pro-Thr-Lys-Gly-Ile-His-Glu-Tyr (Myristoyl-LLARRPTKGIHEY) [Myr-G13SR1pep, original permeable peptide representing SR1 of the Gα13 subunit (Huang, et al. 2007)]
- inhibition of PAR1-induced human platelet aggregation [7]: selectively and dose-dependently inhibited

Compound: RSERKRWFECFD [G13SR2pep-truncated, truncated version of the G13 Switch Region 2 peptide]
- inhibition of human platelet aggregation compared with full length G13SR2pep ([4]; PRP, 150 μM peptide, 15 μM TRAP1 or 0.5 μM U46619 (FIG. 5)): inhibited human platelet aggregation with the same potency

Compound: VGGQRSERKAWFECFDS [G13SR2mutant pep, G13SR2pep with single substitution at amino acid 232 from Arg to Ala, reference compound]
- ability to block integrin activation [8]: completely eliminated the ability
- ability to block platelet activation ([4]; single substitution Arg232 to Ala versus parent G13SR2pep): completely eliminated the ability

Compound: Myr-Val-Gly-Gly-Gln-Arg-Ser-Glu-Arg-Lys-Lys-Trp-Ile-His-Cys-Phe-Glu-Gly (Myristoyl-VGGQRSERKKWIHCFEG) [Myr-Gi SR2pep, myristoylated Gαi switch region 2 peptide]
- effect on human platelet aggregation induced by U46619 (TP) ([6]; PRP, 500 μM peptide): without affecting
- effect on human platelet aggregation induced by TRAP1 (PAR1) [6, 9]: without affecting
- effect on human platelet aggregation induced by TRAP4 (PAR4) [6, 10]: without affecting
- inhibition of ADP-induced aggregation ([6]; PRP, 150-500 μM peptide, 10 μM ADP): dose-dependent (150-500 μM) inhibition

Compound: Myr-Leu-Leu-Ala-Arg-Arg-Pro-Thr-Ala-Gly-Ile-His-Glu-Tyr (Myristoyl-LLARRPTAGIHEY) [Myr-G13SR1pep-2, myristoylated Gα13 switch region 1 peptide, Lys changed to Ala]
- effect on human platelet aggregation induced by U46619 (TP) ([6]; PRP, 500 μM peptide): no measurable effect
- effect on human platelet aggregation induced by ADP ([6]; PRP, 500 μM peptide, 10 μM ADP): no measurable effect
- effect on human platelet aggregation induced by TRAP1 (PAR1) [6, 9]: no measurable effect
- effect on human platelet aggregation induced by TRAP4 (PAR4) [6, 10]: no measurable effect
- inhibition of PAR1-induced human platelet aggregation ([6]; PRP, 30-50 μM peptide, 15 μM TRAP1): progressive inhibition; also recorded: blocked
- potency relative to the original peptide (Myr-G13SR1pep) for inhibition of PAR1-induced human platelet aggregation ([6]; human PRP): ten-fold increased potency
- bleeding time [5]: increased bleeding times; also recorded: substantially increases
